Laboratory results reported in US20130303497A1, “DEUTERATED 5-HT1A RECEPTOR AGONISTS” (priority 2010, published 2013).
Read-outs that look alike come from different tables or passages of the source.

How the values were obtained:
[1] = in humans; Nakashima and Kanemaru 1992; cited from earlier work
[2] = in vitro; details: pH 7.4
Procedure: The mixture of compound and microsome was pre-incubated for 30 minutes, initiating the reaction by addition of NADPH regenerating system (1 unit/mL Isocitric dehydrogenase). At time point 0, 5, 15, 30, 45 and 60 minutes the reactions were stopped by addition of 300 μL cold acetonitrile ([…]) containing 100 ng/mL tolbutamide as internal standard (IS). The samples were immediately mixed and centrifuged at 4000 rpm for 20 min. 100 μL supernatant was transferred to a fresh 96-well containing 300 μL HPLC-grade water for quantitative analysis by LC-MS/MS (LC: Shimatzu LC 10 AD; MS/MS detection: Sciex API4000), using positive ion electrospray. Triplicate experiments (n=3) was performed for each compound. A single-exponential curve (Ct=C0*e^−kt) was fitted to the concentration-time data points to calculate the elimination rate constant (k). The following equation 1 was used to calculate the total hepatic intrinsic clearance (CLint): […]

[3] = Permeability over MDR1-transfected MDCK cell monolayer; format: in vitro ADME, Canine; details: dog; MDR1-MDCK cell monolayer, 2 μM, 150-minute incubation, apical to basolateral
Procedure: (§1) The ability of molecules to pass a biological membrane, like the gastro-intestinal epithelia and the blood-brain barrier endothelia is essential for orally delivered drugs targeting diseases in the brain. The Madin-Darby Canine Kidney (MDCK) cell line is used as an industry standard to evaluate biomembrane passage properties of drugs. […] Test compounds were diluted with the transport buffer (HBSS+1% BSA) from a 10 mM stock solution to a concentration of 2 μM and applied to the apical (A) or basolateral (B) side of the cell monolayer.
(§2) In addition, the efflux ratio of each compound was also determined.
(§3) The apparent biomembrane permeability coefficient Papp (cm/s) was calculated using the equation:
(§4) Papp=(dCr/dt)×Vr/(A×C0) Equation 4
(§5) Where dCr/dt is the cumulative concentration of compound in the receiver chamber as a function of time (μM/s); Vr is the solution volume in the receiver chamber (0.075 mL on the apical side, 0.25 mL on the basolateral side); A is the surface area for the transport, i.e. 0.084 cm2 for the area of the monolayer; Co is the initial concentration in the donor chamber.
(§6) The efflux ratio was calculated using the equation:
(§7) Efflux Ratio=Papp(BA)/Papp(AB) Equation 5
(§8) Percent recovery was calculated using the equation:
(§9) % Recovery=100×[(Vr×Cr)+(Vd×Cd)]/(Vd×C0) Equation 6
(§10) Where Vd is the volume in the donor chambers (0.075 mL on the apical side, 0.25 mL on the basolateral side); Cd and Cr are the final concentrations of transport compound in donor and receiver chambers, respectively.

[4] = tested on: MDR1 (P-gp); assay: as above; format: in vitro ADME, Canine; details: dog, donor and receiver chamber, MDR1-MDCK monolayer, 2 μM
Procedure: as §1, §2, §3, §4, §5, §6, §7, §8, §9, §10

[5] = Plasma protein binding, equilibrium dialysis; format: in vitro ADME; details: human plasma dialysed against phosphate buffer, pH 7.4, mass recovery from the dialysis device
Procedure: (§11) Human plasma was obtained from Bioreclamation (Lot No. BRH354026). A 96-Well Micro-equilibrium Dialysis Device (HT-Dialysis LLC, Model HTD 96 b) separated by dialysis membrane (MWCO 12-14k, HT Dialysis), was used to study the protein binding. The dialysis membrane strips were soaked in distilled water for 1 hour and then in 20% ethanol in water (v/v) for another 20 minutes. The membrane strips were subsequently rinsed 20 min in pure water before use. The studied compounds were individually spiked into human plasma to a final concentration of 0.2 μM, and pre-incubated for 30 min. Aliquots (150 μL) of phosphate buffer (100 mM sodium phosphate, pH 7.4) and spiked plasma was placed in the receiver and donor compartment, respectively. The dialysis block was sealed and placed in a shaker (150 rpm) for 6 hours at 37° C. Each experiment was performed in triplicates (n=3). Aliquot 50 μL from both the donor sides and receiver sides of the dialysis devise was transferred into new sample preparation plates and mixed with the aliquots with same volume of opposite matrixes (blank buffer to plasma and visa verse). […] Hundred μL of the supernatant was transferred to a new 96-well plate and mixed with 200 μL of Milli-Q water containing 0.1% FA. Drug content was quantified with LC/MS/MS (Sciex API4000).
(§12) Percent bound to plasma is calculated as follows:
(§13) % Bound=100−(100×[Receiver]6h/[Donor]6h.) Equation 2
(§14) Mass recovery of test compound from the HTDialysis after 6 h is calculated as follows:
(§15) % Recovery=100×([Donor]6h+[Receiver]6h)/[Donor]0h Equation 3

[6] = tested on: human plasma proteins; assay: Plasma protein binding, equilibrium dialysis; format: in vitro ADME; details: for degree of protein binding in human plasma compared to tandospirone: One-way ANOVA with Dunnett's test vs Tandospirone
Procedure: as §11, §12, §13, §14, §15

[7] = tested on: plasma proteins; details: Miller et al., 1992; cited from earlier work
[8] = tested on: MDR1-MDCK cell monolayer; assay: Permeability over MDR1-transfected MDCK cell monolayer; format: in vitro ADME, Canine
Procedure: as §1, §2, §3, §4, §5, §6, §7, §8, §9, §10

[9] = tested on: serotonin 5-HT1A receptor; details: partial agonist; Tanaka et al. 1995 and Yabuuchi et al. 2004; cited from earlier work
[10] = molecular target: serotonin 5-HT1A receptor; details: Hamik et al. 1990; read-out: Ki affinity value; cited from earlier work
[11] = pH 7.4, 0.2 μM, equilibrium dialysis, 37° C., n=3, read-out: Protein binding (%) (converted)

Structure (SMILES) | CLint scaled at 1 μM ([2]; human, microsomes) [L/h/kg] | recovery at 6 h, 0.2 μM [5] [%] | degree of protein binding in human plasma compared to tandospirone [6] | fraction unbound at 6 h, 0.2 μM [6, 11] | other results
O=C1[C@@H]2[C@H]3CC[C@H](C3)[C@@H]2C(=O)N1CCCCN1CCN(c2ncccn2)CC1 [Tandospirone, (1R,2R,6S,7S)-4-{4-[4-(pyrimidin-2-yl)piperazin-1-yl]butyl}-4-azatricyclo[5.2.1.0^2,6]decane-3,5-dione] | 16.9 | 82 |  |  | elimination half-life in the systemic circulation [1]: 1 to 2 h; Papp A→B at 150 min, 2 μM [3]: 300 nm/s; recovery at 150 min, 2 μM ([4]; MDCK-MDR1 cell monolayer): 107%; Protein binding (%) ([6]; 0.2 μM, equilibrium dialysis, 37° C., n=3): 70%; fraction unbound at 6 h, 0.2 μM ([6]; human, pH 7.4, read-out: observed unbound fraction): 0.3; unbound fraction reported in the literature [7]: 30.4%
[2H]C([2H])(CCCN1C(=O)[C@@H]2[C@@H]3CC[C@@H](C3)[C@@H]2C1=O)N1CCN(c2ncccn2)CC1 [Compound II, (1R,2R,6S,7S)-4-{4-[4-(pyrimidin-2-yl)piperazin-1-yl]-(4,4-^2H2)butyl}-4-azatricyclo[5.2.1.0^2,6]decane-3,5-dione] | 14.1 | 95 | statistically significant lower degree of protein binding | 0.42 | 
O=C(O)Cc1ccccc1Nc1c(Cl)cccc1Cl [Diclofenac, reference compound] | 5.4 |  |  |  | 
[2H]c1cnc(N2CCN(C([2H])CCCN3C(=O)[C@@H]4[C@@H]5CC[C@@H](C5)[C@@H]4C3=O)CC2)nc1 (stereo partly drawn) [IX, (1R,2R,6S,7S)-4-{4-[4-((5-^2H)pyrimidin-2-yl)piperazin-1-yl]-(4-^2H)butyl}-4-azatricyclo[5.2.1.0^2,6]decane-3,5-dione] |  |  | statistically significant lower degree of protein binding |  | 
CC(C)NCC(O)COc1cccc2ccccc12 (stereo not drawn) [Propranolol] |  |  |  |  | B-A/A-B efflux ratio ([8]; MDR1-MDCK cell monolayer, 2 μM): 62; Papp, A-B (×10^−6 cm/s) ([8]; MDR1-MDCK cell monolayer, 2 μM, 150-minute incubation, apical to basolateral): 15 ×10^−6 cm/s
C[C@]12CC[C@H]3[C@@H](CCC4=CC(=O)CC[C@@]43C)[C@@H]1CC[C@@H]2O [Testosterone, reference compound] |  |  |  |  | CLint scaled at 1 μM [2]: 4.2 L/h/kg
[2H]C([2H])(CN1C(=O)[C@@H]2[C@@H]3CC[C@@H](C3)[C@@H]2C1=O)C([2H])([2H])C([2H])([2H])N1CCN(c2ncccn2)CC1 [XVIII, (1R,2R,6S,7S)-4-{4-[4-(pyrimidin-2-yl)piperazin-1-yl]-(2,2,3,3,4,4-^2H6)butyl}-4-azatricyclo[5.2.1.0^2,6]decane-3,5-dione] | 13.4 | 111 | statistically significant lower degree of protein binding | 0.47 | 
[2H]c1cnc(N2CCN(C([2H])([2H])CCCN3C(=O)[C@@H]4[C@H](C3=O)[C@H]3C[C@@H]4C([2H])C3[2H])CC2)nc1 (stereo partly drawn) [VII, (1R,2R,6S,7S)-4-{4-[4-((5-^2H)pyrimidin-2-yl)piperazin-1-yl]-(4,4-^2H2)butyl}-(8,9-^2H2)-4-azatricyclo[5.2.1.0^2,6]decane-3,5-dione] | 13.9 | 94 |  | 0.31 | 
O=C1[C@@H]2[C@@H]3CC[C@@H](C3)[C@@H]2C(=O)N1CCCCN1CCN(c2ncccn2)CC1 [Tandospirone, (1R,2R,6S,7S)-4-{4-[4-(pyrimidin-2-yl)piperazin-1-yl]butyl}-4-azatricyclo[5.2.1.0^2,6]decane-3,5-dione] |  |  |  |  | intrinsic activity [9]: 55-85%; Ki [10]: 0.027 ± 0.005 µM
[2H]C([2H])(CCCN1C(=O)[C@@]2([2H])[C@H]3CC[C@H](C3)[C@@]2([2H])C1=O)N1CCN(c2ncccn2)CC1 [Compound XV, (1R,2R,6S,7S)-4-{4-[4-(pyrimidin-2-yl)piperazin-1-yl]-(4-^2H2)butyl}-(2,6-^2H2)-4-azatricyclo[5.2.1.0^2,6]decane-3,5-dione] | 13.7 | 92 |  | 0.38 | 
[2H]C1C([2H])[C@@H]2C[C@H]1[C@@H]1C(=O)N(CCCC([2H])([2H])N3CCN(c4ncccn4)CC3)C(=O)[C@@H]12 (stereo partly drawn) [VI, (1R,2R,6S,7S)-4-{4-[4-(pyrimidin-2-yl)piperazin-1-yl]-(4,4-^2H2)butyl}-(8,9-^2H2)-4-azatricyclo[5.2.1.0^2,6]decane-3,5-dione] | 14.4 | 96 | statistically significant lower degree of protein binding | 0.43 | 
[2H]c1cnc(N2CCN(C([2H])([2H])CCCN3C(=O)[C@@H]4[C@@H]5CC[C@@H](C5)[C@@H]4C3=O)CC2)nc1 [Compound III, (1R,2R,6S,7S)-4-{4-[4-((5-^2H)pyrimidin-2-yl)piperazin-1-yl]-(4,4-^2H2)butyl}-4-azatricyclo[5.2.1.0^2,6]decane-3,5-dione] | 13.1 | 86 | statistically significant lower degree of protein binding | 0.51 | Papp A→B at 150 min, 2 μM [3]: 350 nm/s; Papp, A-B compared to tandospirone ([8]; P<0.05, One-way ANOVA with Dunnett's test): statistically significant higher Papp, A-B; recovery at 150 min, 2 μM ([4]; MDCK-MDR1 cell monolayer): 112%
CC(Cc1ccc(O)cc1)NCC(O)c1cc(O)cc(O)c1 (stereo not drawn) [Fenoterol] |  |  |  |  | Papp A→B at 150 min, 2 μM [3]: 9.2 nm/s; recovery at 150 min, 2 μM [4]: 109%
